Reference: PubChem BioAssay AID1918943 (Molecular Pharmacology Branch, DTP, NCI, 2023)

Test system: 855422-203-R-J1-PDC complex spheroid viability
Experiment: Anticancer human tumor 855422-203-R-J1-PDC patient-derived bladder carcinoma cell line growth inhibition
Details: for IC50: curve of first compound; for viability, T/C: stronger effect = lower value
From the text: Multicellular complex tumor spheroid response to LSD1 Inhibitor Iadademstat in combination with a variety of drugs and investigational agents in selected tumor cell lines
The current study was undertaken to assess response to LSD1 inhibitors in combination with standard-of-care drugs and investigational agents in solid tumor complex spheroid models as well as in the K-562 leukemia. Complex spheroids include a stromal component modeled by human endothelial cells (HUVEC) and fibroblasts modeled by human mesenchymal stem cells (MSCs). The concentration ranges selected for each drug and investigational agent were based upon clinically achievable concentrations if the clinical Cmax of the agent was known.
Compounds. The drugs and investigational agents used in this study are listed on Table 1. All of the agents used, including staurosporine (NSC755774) and gemcitabine (NSC613327), were obtained from the Developmental Therapeutics Program, NCI. FDA-approved anticancer drugs are available from the NCI at http://dtp.nci.nih.gov/branches/dscb/oncology_drugset_explanation.html. Drugs and investigational agents were >95% pure by proton nuclear magnetic resonance (NMR) and liquid chromatography/mass spectrometry (LC/MS). Stock solutions were prepared at 400x in DMSO, stored at -70 degrees C, and diluted in fresh medium prior to their use. The final concentration of DMSO in cell culture wells never exceeded 0.25% (v/v). The FDA-approved anticancer drug set is available from the Developmental Therapeutics Program at https://dtp.cancer.gov/organization/dscb/obtaining/available_plates.htm. All drugs and investigational agents were tested over a range starting from a high concentration at or near the clinical Cmax and decreasing in half-log increments. If the clinical Cmax for an agent had not been determined, the highest concentration tested was 10 microM.
Cell Lines. The patient-derived cancer cell (PDC) lines: 292921-168-R-J2-PDC, K24384-001-R-PDC, and 521955-158-R2-J5-PDC pancreatic carcinomas, 556581-035-R-J1 ovarian carcinoma, 324938-238-R-J1-PDC, 855422-203-R-J1-PDC and 883617-216-R-J1-PDC urothelial bladder carcinomas, 743489-274-T-PDC renal cell carcinoma, 138582-R-J1 Merkel cell tumor, K60290-347-R-J1 and K57222-313-R-J1-PDC glioblastomas, 653999-131-R-J2-PDC, LG0703-F948-PDC, and 349418-098-R-PDC non-small cell lung carcinomas, 885512-296-R-J2-PDC, 171881-019-R-J1-PDC breast carcinomas and 186277-243-T-J2-PDC and 233499-124-R-J2-PDC colon carcinomas were obtained from the NCI Patient-Derived Models Repository (PDMR, https://pdmr.cancer.gov). The established cell lines NCI/ADR-RES (RRID:CVCL_14520 and OVCAR-5 (RRID:CVCL_1628) ovarian carcinomas, 786-O (RRID:CVCL_1051) and A498 (RRID:CVCL_A498) renal cell carcinoma, NCI-H211 (ATCC, cat. CRL-5824; RRID:CVCL_1529), NCI-H196 (ATCC, cat. CRL-5823, RRID:CVCL_1509), SW 1271 (ATCC, cat. CRL-2177, RRID:CVCL_1716) and NCI-H1876 (ATCC, cat. CRL-5902, RRID:CVCL_1503) small cell lung carcinomas, MDA-MB-231 (RRID:CVCL_0062) and MDA-MB-468 (RRID:CVCL_0419)breast carcinomas (10-12). Pooled donor human umbilical vein endothelial cells (HUVEC, Lonza, cat. CC-2519) and human mesenchymal stem cells (hMSC, Lonza, cat. PT-2501) were purchased from Lonza (Walkersville, MD).
Cell Culture. All cells were maintained in an incubator at 37 degrees C and 5% CO2 with 95% humidity. The PDC lines were cultured according to standard operating procedures established by the NCI PDMR (https://pdmr.cancer.gov). Briefly all PDCs were thawed and cultured in Matrigel-coated flasks prepared with a working solution of 1X Ham's F-12 nutrient mix, without supplementation (Invitrogen, Waltham, MA, cat. 11765054), 100 U/mL penicillin-streptomycin (Invitrogen, cat. 15140122), and 2.5% Matrigel (Corning Inc., Corning, NY, cat. 354248) for the first three passages. […]

[1] = second compound 0.1 µM, first compound 0.00949 µM
[2] = second compound 0.1 µM, first compound 0.03 µM
[3] = second compound 0.1 µM, first compound 0.0949 µM
[4] = second compound 0.1 µM, first compound 0.3 µM
[5] = second compound 0.1 µM, first compound 0.949 µM
[6] = second compound 0.1 µM, first compound 3 µM
[7] = second compound 0.316 µM, first compound 0.00949 µM
[8] = second compound 0.316 µM, first compound 0.03 µM
[9] = second compound 0.316 µM, first compound 0.0949 µM
[10] = second compound 0.316 µM, first compound 0.3 µM
[11] = second compound 0.316 µM, first compound 0.949 µM
[12] = second compound 0.316 µM, first compound 3 µM
[13] = second compound 1 µM, first compound 0.00949 µM
[14] = second compound 1 µM, first compound 0.03 µM
[15] = second compound 1 µM, first compound 0.0949 µM
[16] = second compound 1 µM, first compound 0.3 µM
[17] = second compound 1 µM, first compound 0.949 µM
[18] = second compound 1 µM, first compound 3 µM
[19] = second compound 3.16 µM, first compound 0.00949 µM
[20] = second compound 3.16 µM, first compound 0.03 µM
[21] = second compound 3.16 µM, first compound 0.0949 µM
[22] = second compound 3.16 µM, first compound 0.3 µM
[23] = second compound 3.16 µM, first compound 0.949 µM
[24] = second compound 3.16 µM, first compound 3 µM
[25] = second compound 10 µM, first compound 0.00949 µM
[26] = second compound 10 µM, first compound 0.03 µM
[27] = second compound 10 µM, first compound 0.0949 µM
[28] = second compound 10 µM, first compound 0.3 µM
[29] = second compound 10 µM, first compound 0.949 µM
[30] = second compound 10 µM, first compound 3 µM
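Further: drug exposure lasted 7 days starting on day 3 after seeding.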
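Wherever viability, T/C is given: luminescence viability as percent of DMSO vehicle wells = 100%.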

## Nc1ccccc1NC(=O)c1ccc(CNC(=O)OCc2cccnc2)cc1 + NC1CC1c1ccc(-c2cccc(O)c2)cc1
Second compound 0.1 µM
  IC50: 1220 nM
Second compound 0.316 µM
  IC50: 1300 nM
Second compound 1 µM
  IC50: 1070 nM
Second compound 3.16 µM
  IC50: 993 nM
Second compound 10 µM
  IC50: 1030 nM
[1]
  viability, T/C: 90.3%
[2]
  viability, T/C: 91.2%
[3]
  viability, T/C: 98.5%
[4]
  viability, T/C: 97.8%
[5]
  viability, T/C: 60.8%
[6]
  viability, T/C: 11.8%
[7]
  viability, T/C: 95.3%
[8]
  viability, T/C: 92.6%
[9]
  viability, T/C: 104%
[10]
  viability, T/C: 96.4%
[11]
  viability, T/C: 65.9%
[12]
  viability, T/C: 7.62%
[13]
  viability, T/C: 89.4%
[14]
  viability, T/C: 90.4%
[15]
  viability, T/C: 85.9%
[16]
  viability, T/C: 82.8%
[17]
  viability, T/C: 54.7%
[18]
  viability, T/C: 6.8%
[19]
  viability, T/C: 87.9%
[20]
  viability, T/C: 86.6%
[21]
  viability, T/C: 91%
[22]
  viability, T/C: 90.2%
[23]
  viability, T/C: 51.9%
[24]
  viability, T/C: 5.73%
[25]
  viability, T/C: 98.7%
[26]
  viability, T/C: 91.3%
[27]
  viability, T/C: 91.1%
[28]
  viability, T/C: 87.4%
[29]
  viability, T/C: 53.5%
[30]
  viability, T/C: 2.03%

## O=C(C=Cc1cccc(S(=O)(=O)Nc2ccccc2)c1)NO + NC1CC1c1ccc(-c2cccc(O)c2)cc1
Second compound 0.1 µM
  IC50: 446 nM
Second compound 0.316 µM
  IC50: 448 nM
Second compound 1 µM
  IC50: 404 nM
Second compound 3.16 µM
  IC50: 466 nM
Second compound 10 µM
  IC50: 336 nM
[1]
  viability, T/C: 102%
[2]
  viability, T/C: 109%
[3]
  viability, T/C: 106%
[4]
  viability, T/C: 66.2%
[5]
  viability, T/C: 17.4%
[6]
  viability, T/C: 0.43%
[7]
  viability, T/C: 103%
[8]
  viability, T/C: 112%
[9]
  viability, T/C: 122%
[10]
  viability, T/C: 66.4%
[11]
  viability, T/C: 19.4%
[12]
  viability, T/C: 0.31%
[13]
  viability, T/C: 100%
[14]
  viability, T/C: 116%
[15]
  viability, T/C: 114%
[16]
  viability, T/C: 60.4%
[17]
  viability, T/C: 18.3%
[18]
  viability, T/C: 0.29%
[19]
  viability, T/C: 94.5%
[20]
  viability, T/C: 105%
[21]
  viability, T/C: 118%
[22]
  viability, T/C: 69.8%
[23]
  viability, T/C: 17.1%
[24]
  viability, T/C: 0.24%
[25]
  viability, T/C: 97.6%
[26]
  viability, T/C: 108%
[27]
  viability, T/C: 106%
[28]
  viability, T/C: 54%
[29]
  viability, T/C: 10.9%
[30]
  viability, T/C: 0.27%
